Assay results: EP0428854A2, “Process for the preparation of 4-(4-isobutylphenyl)-butyraldehyde” (BOEHRINGER INGELHEIM KG, priority 1989, dated 1991)

Biological target: T1, PAF-Rezeptor (Homo sapiens, UniProt P25105)
T1 construct: endogenous in cells; host or cells: intact human platelets from blood of healthy donors, purified on Sepharose CL-2B
Assay: [3H]PAF receptor binding on vital human platelets (competitive displacement of the radioligand)
Details: potency of the (-)-enantiomer relative to the other enantiomer, [³H]PAF binding
Text: Überraschenderweise wurde gefunden, daß das (-)-Enantiomere 40-mal wirkungsstärker ist. Die pharmakologische Wirkung wurde anhand des nachfolgenden Experiments bestimmt: [³H]PAF-Rezeptor-Bindung an vitalen humanen Blutplättchen
Bestimmt wird die konkurrierende Wechselwirkung von Prüfsubstanzen (hier PAF-Antagonisten) mit der bekannten Wechselwirkung des Radioliganden [³H]PAF zum gleichen Rezeptor. Die Bindungsstudien wurden an vitalem menschlichen Thrombozyten vorgenommen. Blutproben von gesunden Spendern wurden mit ACD-Puffer verdünnt und zentrifugiert (15 Min., 160 x g). Das blättchenreiche Plasma wird durch Chromatographie an Sepharose CL-2B [Zum Eluieren: HEPES-Puffer, pH 7,4 20°C] gereinigt.
Definierte Mengen [z.B. 800 µl] der Blättchensuspension wurden 90 Min. bei Raumtemperatur inkubiert, d.h. vermischt mit: • a) einer […] [³H]PAF-Lösung, verdünnt mit Puffer. • b) mit einer 30 pmolaren [³H] PAF-Lösung, die gleichzeitig eine µmolare (nicht markierte) PAF-Lösung enthält, • c) mit der 30 pmolaren [³H]PAF-Lösung und den Lösungen der Prüfsubstanzen (unterschiedliche Konzentrationen) • a) Dient zur Ermittlung der totalen Bindung, • b) dient zur Ermittlung der unspezifischen Bindung.
Die Reaktion wurde durch Vakuumfiltration abgestoppt. Die Filter mit den Blutplättchen werden mit Szintilationsflüssigkeit versetzt und die verbliebene Radioaktivität in einem Counter gemessen. […]

T1 sequence (P25105 whole entry): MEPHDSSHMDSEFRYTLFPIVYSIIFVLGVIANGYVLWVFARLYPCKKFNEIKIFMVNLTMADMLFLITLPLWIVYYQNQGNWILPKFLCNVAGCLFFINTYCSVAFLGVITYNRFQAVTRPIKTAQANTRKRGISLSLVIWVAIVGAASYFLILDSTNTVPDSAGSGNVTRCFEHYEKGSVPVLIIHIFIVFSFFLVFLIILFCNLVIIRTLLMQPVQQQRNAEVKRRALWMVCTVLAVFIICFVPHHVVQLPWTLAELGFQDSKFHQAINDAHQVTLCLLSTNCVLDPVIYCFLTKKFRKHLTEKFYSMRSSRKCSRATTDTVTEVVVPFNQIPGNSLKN

Cc1nnc2n1-c1sc(CCc3ccc(CC(C)C)cc3)cc1C(c1ccccc1Cl)=NC2C (single isomer, unassigned; (-)) [(-)Enantiomer, (-)-4-(2-Chlorphenyl)-2-[2-(4-isobutylphenyl)ethyl]-6,9-dimethyl-6H-thieno[3,2-f][1,2,4]triazolo[4,3-a][1,4]diazepin]
wirkungsstärker: 40 mal
